According to ChEMBL document CHEMBL1138512, “A class of 2,4-bisanilinopyrimidine Aurora A inhibitors with unusually high selectivity against Aurora B” (J Med Chem, 2009):
pIC50: −log10 of the molar value.

What was measured:
[1] = target: Macrophage colony-stimulating factor 1 receptor (Homo sapiens) (UniProt P07333); assay: Inhibition of FMS at 1 uM
[2] = target: Cyclin-dependent kinase 5/CDK5 activator 1 (Homo sapiens) (UniProt Q00535+Q15078); assay: Inhibition of CDK5/p25 at 1 uM; format: protein-complex assay
[3] = target: Epidermal growth factor receptor (Homo sapiens) (UniProt P00533); assay: Inhibition of ErbB1 at 1 uM
[4] = target: Eukaryotic elongation factor 2 kinase (Homo sapiens) (UniProt O00418); assay: Inhibition of EEF2K at 1 uM
[5] = target: Serine/threonine-protein kinase Nek2 (Homo sapiens) (UniProt P51955); assay: Inhibition of NEK2 at 1 uM
[6] = target: Rho-associated protein kinase 1 (Homo sapiens) (UniProt Q13464); assay: Inhibition of ROCK1 at 1 uM
[7] = target: Ribosomal protein S6 kinase alpha-1 (Homo sapiens) (UniProt Q15418); assay: Inhibition of RSK1 at 1 uM
[8] = target: Dual specificity mitogen-activated protein kinase kinase 1 (Homo sapiens) (UniProt Q02750); assay: Inhibition of MEK1 at 1 uM
Aurora kinase B [9] = target: T1, Aurora kinase B (Homo sapiens, UniProt Q96GD4); assay: Inhibition of N-terminal flag-tagged Aurora B expressed in Escherichia coli BL21-DE3 by ELISA
HT-29 = assay: Antiproliferative activity against human HT-29 cells after 4 days by celltiter assay; format: functional, cell-based; details: HT-29, 96 h
[10] = target: Serine/threonine-protein kinase pim-1 (Homo sapiens) (UniProt P11309); assay: Inhibition of PIM1 at 1 uM
[11] = target: Dual specificity protein kinase CLK1 (Homo sapiens) (UniProt P49759); assay: Inhibition of CLK1 at 1 uM
[12] = target: Mitogen-activated protein kinase kinase kinase 9 (Homo sapiens) (UniProt P80192); assay: Inhibition of MLK1 at 1 uM
[13] = target: Beta-adrenergic receptor kinase 1 (Homo sapiens) (UniProt P25098); assay: Inhibition of GRK2 at 1 uM
[14] = target: MAP kinase-activated protein kinase 2 (Homo sapiens) (UniProt P49137); assay: Inhibition of MAPKAPK2 at 1 uM
[15] = target: Serine/threonine-protein kinase B-raf (Homo sapiens) (UniProt P15056); assay: Inhibition of BRAF at 1 uM
[16] = target: T2, Cyclin-dependent kinase 2 (Homo sapiens, UniProt P24941); assay: Inhibition of CDK2/cyclin A
Aurora kinase B [17] = target: T1, Aurora kinase B; assay: Inhibition of Aurora B at 1 uM
[18] = target: Casein kinase I isoform delta (Homo sapiens) (UniProt P48730); assay: Inhibition of CK1delta at 1 uM
[19] = target: Casein kinase II subunit alpha (Homo sapiens) (UniProt P68400); assay: Inhibition of CK2alpha1 at 1 uM
[20] = target: Serine/threonine-protein kinase Nek1 (Homo sapiens) (UniProt Q96PY6); assay: Inhibition of NEK1 at 1 uM
[21] = target: Calcium/calmodulin-dependent protein kinase type II subunit alpha (Homo sapiens) (UniProt Q9UQM7); assay: Inhibition of CaMK2alpha at 1 uM
[22] = target: Serine/threonine-protein kinase PLK1 (Homo sapiens) (UniProt P53350); assay: Inhibition of PLK1 at 1 uM
[23] = target: Activin receptor type-1B (Homo sapiens) (UniProt P36896); assay: Inhibition of ALK4 at 1 uM
[24] = target: Receptor tyrosine-protein kinase erbB-2 (Homo sapiens) (UniProt P04626); assay: Inhibition of HER2 at 1 uM
[25] = target: Ephrin type-B receptor 1 (Homo sapiens) (UniProt P54762); assay: Inhibition of EPHB1 at 1 uM
[26] = target: T2, Cyclin-dependent kinase 2; assay: Inhibition of CDK2/cyclin A at 1 uM
[27] = target: Mitogen-activated protein kinase 14 (Homo sapiens) (UniProt Q16539); assay: Inhibition of P38alpha at 1 uM
[28] = target: 5'-AMP-activated protein kinase catalytic subunit alpha-1 (Homo sapiens) (UniProt Q13131); assay: Inhibition of AMPK A1/B1/G1 at 1 uM
Aurora kinase B [29] = target: Aurora kinase B (Homo sapiens, UniProt Q96GD4, E161T); assay: Inhibition of N-terminal flag-tagged Aurora B E161T mutant expressed in Escherichia coli BL21-DE3
[30] = target: ALK tyrosine kinase receptor (Homo sapiens) (UniProt Q9UM73); assay: Inhibition of ALK at 1 uM
[31] = target: High affinity nerve growth factor receptor (Homo sapiens) (UniProt P04629); assay: Inhibition of TRKA at 1 uM
[32] = target: Glycogen synthase kinase-3 beta (Homo sapiens) (UniProt P49841); assay: Inhibition of GSK3-beta at 1 uM
[33] = target: Cytoplasmic tyrosine-protein kinase BMX (Homo sapiens) (UniProt P51813); assay: Inhibition of BMX at 1 uM
[34] = target: Tyrosine-protein kinase ABL1 (Homo sapiens) (UniProt P00519); assay: Inhibition of ABL1 at 1 uM
[35] = target: Dual specificity tyrosine-phosphorylation-regulated kinase 3 (Homo sapiens) (UniProt O43781); assay: Inhibition of DYRK3 at 1 uM
[36] = target: Serine/threonine-protein kinase PLK3 (Homo sapiens) (UniProt Q9H4B4); assay: Inhibition of PLK3 at 1 uM
[37] = target: Serine/threonine-protein kinase Nek6 (Homo sapiens) (UniProt Q9HC98); assay: Inhibition of NEK6 at 1 uM
[38] = target: Casein kinase I isoform alpha (Homo sapiens) (UniProt P48729); assay: Inhibition of CK1alpha1 at 1 uM
[39] = target: Serine/threonine-protein kinase Sgk1 (Homo sapiens) (UniProt O00141); assay: Inhibition of SGK1 at 1 uM
[40] = target: Cyclin-dependent kinase 1/cyclin B1 (Homo sapiens) (UniProt P06493+P14635); assay: Inhibition of CDK1/cyclin B at 1 uM
[41] = target: Insulin receptor (Homo sapiens) (UniProt P06213); assay: Inhibition of INSR at 1 uM
[42] = target: 3-phosphoinositide-dependent protein kinase 1 (Homo sapiens) (UniProt O15530); assay: Inhibition of PDK1 at 1 uM
[43] = target: Tyrosine-protein kinase JAK2 (Homo sapiens) (UniProt O60674); assay: Inhibition of JAK2 at 1 uM
[44] = target: Aurora kinase C (Homo sapiens) (UniProt Q9UQB9); assay: Inhibition of Aurora C at 1 uM
[45] = target: Ribosomal protein S6 kinase beta-1 (Homo sapiens) (UniProt P23443); assay: Inhibition of p70S6K at 1 uM
[46] = target: cAMP-dependent protein kinase catalytic subunit alpha (Homo sapiens) (UniProt P17612); assay: Inhibition of PRKACA at 1 uM
[47] = target: Receptor-type tyrosine-protein kinase FLT3 (Homo sapiens) (UniProt P36888); assay: Inhibition of FLT3 at 1 uM

T1 sequence (Q96GD4 whole entry): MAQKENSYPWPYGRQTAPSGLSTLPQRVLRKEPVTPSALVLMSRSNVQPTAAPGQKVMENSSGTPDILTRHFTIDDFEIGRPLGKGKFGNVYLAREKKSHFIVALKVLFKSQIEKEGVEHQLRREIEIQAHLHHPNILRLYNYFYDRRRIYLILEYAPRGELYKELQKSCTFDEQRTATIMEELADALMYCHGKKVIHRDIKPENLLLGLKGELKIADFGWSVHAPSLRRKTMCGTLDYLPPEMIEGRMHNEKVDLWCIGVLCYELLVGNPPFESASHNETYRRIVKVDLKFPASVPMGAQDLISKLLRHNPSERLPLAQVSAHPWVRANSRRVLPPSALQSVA
Aurora kinase B (Homo sapiens, UniProt Q96GD4, E161T), sequence (Q96GD4 whole entry E161T): as the sequence (Q96GD4 whole entry) above, with E161T counted along it
Tyrosine-protein kinase JAK2 (Homo sapiens), sequence (O60674 whole entry): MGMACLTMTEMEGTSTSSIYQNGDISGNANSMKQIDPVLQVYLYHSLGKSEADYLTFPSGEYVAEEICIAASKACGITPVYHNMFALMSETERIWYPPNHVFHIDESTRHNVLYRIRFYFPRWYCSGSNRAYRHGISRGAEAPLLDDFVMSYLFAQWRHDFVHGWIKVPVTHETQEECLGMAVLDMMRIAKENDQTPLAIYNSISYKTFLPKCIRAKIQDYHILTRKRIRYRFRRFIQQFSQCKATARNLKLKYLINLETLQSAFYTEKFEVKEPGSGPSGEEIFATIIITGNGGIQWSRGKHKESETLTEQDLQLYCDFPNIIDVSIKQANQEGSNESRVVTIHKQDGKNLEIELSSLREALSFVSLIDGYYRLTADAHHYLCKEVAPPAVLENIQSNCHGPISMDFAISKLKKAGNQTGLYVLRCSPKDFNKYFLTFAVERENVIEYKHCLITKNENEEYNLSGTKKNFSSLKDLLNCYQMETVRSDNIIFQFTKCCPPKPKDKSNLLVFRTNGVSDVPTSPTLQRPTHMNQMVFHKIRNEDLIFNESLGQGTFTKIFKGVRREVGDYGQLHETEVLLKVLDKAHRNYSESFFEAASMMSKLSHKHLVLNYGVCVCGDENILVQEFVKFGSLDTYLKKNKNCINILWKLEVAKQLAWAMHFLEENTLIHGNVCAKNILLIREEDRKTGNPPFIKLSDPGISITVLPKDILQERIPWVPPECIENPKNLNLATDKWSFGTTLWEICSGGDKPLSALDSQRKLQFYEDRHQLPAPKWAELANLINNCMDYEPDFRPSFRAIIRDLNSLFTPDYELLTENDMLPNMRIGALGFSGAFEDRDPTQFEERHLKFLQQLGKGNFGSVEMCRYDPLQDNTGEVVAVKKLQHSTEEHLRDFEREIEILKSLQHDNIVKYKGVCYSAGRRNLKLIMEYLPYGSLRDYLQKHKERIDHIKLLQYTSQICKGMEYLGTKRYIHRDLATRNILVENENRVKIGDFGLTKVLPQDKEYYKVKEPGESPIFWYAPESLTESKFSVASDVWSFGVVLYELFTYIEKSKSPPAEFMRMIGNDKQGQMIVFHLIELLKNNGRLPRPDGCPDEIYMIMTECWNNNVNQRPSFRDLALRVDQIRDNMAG
Eukaryotic elongation factor 2 kinase (Homo sapiens), sequence (O00418 whole entry): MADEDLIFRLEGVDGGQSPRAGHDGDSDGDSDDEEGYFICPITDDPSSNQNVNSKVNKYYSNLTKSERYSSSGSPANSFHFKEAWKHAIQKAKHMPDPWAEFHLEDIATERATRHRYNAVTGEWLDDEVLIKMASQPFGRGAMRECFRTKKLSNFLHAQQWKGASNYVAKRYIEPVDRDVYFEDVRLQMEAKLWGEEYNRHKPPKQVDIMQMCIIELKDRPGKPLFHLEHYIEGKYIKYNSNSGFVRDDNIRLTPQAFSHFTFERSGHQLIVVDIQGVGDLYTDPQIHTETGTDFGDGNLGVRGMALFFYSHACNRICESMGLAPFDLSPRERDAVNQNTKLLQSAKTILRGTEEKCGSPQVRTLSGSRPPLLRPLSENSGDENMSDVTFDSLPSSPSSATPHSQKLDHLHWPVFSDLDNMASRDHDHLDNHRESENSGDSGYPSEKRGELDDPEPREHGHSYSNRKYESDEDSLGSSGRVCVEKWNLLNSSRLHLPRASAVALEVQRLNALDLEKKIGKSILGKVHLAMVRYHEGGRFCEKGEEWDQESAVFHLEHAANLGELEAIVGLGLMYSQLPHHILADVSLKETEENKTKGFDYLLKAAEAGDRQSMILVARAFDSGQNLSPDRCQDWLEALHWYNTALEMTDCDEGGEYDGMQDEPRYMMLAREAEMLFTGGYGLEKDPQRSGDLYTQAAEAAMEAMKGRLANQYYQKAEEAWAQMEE
Activin receptor type-1B (Homo sapiens), sequence (P36896 whole entry): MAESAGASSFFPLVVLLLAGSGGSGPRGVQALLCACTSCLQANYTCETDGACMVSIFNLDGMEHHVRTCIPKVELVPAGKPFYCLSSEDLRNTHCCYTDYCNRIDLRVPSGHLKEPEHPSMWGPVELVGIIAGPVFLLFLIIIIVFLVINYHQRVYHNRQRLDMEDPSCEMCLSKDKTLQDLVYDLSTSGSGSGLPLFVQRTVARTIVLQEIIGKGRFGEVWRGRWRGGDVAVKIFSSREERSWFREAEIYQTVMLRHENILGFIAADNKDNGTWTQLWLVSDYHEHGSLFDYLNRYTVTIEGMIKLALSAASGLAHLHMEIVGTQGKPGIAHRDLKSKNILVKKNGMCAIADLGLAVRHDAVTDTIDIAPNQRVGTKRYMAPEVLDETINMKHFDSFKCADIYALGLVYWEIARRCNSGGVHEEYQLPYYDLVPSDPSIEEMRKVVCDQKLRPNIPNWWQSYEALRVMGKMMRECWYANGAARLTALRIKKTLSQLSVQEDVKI
Glycogen synthase kinase-3 beta (Homo sapiens), sequence (P49841 whole entry, looked up): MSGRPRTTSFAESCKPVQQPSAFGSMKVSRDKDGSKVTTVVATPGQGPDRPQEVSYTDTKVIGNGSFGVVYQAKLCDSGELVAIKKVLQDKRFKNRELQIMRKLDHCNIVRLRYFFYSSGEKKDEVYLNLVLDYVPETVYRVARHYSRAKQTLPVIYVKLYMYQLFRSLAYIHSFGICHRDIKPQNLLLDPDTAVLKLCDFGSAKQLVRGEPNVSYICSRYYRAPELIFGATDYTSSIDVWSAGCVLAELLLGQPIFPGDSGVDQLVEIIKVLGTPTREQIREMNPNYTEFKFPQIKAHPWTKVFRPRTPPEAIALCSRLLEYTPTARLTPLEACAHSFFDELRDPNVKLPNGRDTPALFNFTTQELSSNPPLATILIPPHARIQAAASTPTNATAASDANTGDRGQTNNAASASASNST
Serine/threonine-protein kinase Sgk1 (Homo sapiens), sequence (O00141 whole entry): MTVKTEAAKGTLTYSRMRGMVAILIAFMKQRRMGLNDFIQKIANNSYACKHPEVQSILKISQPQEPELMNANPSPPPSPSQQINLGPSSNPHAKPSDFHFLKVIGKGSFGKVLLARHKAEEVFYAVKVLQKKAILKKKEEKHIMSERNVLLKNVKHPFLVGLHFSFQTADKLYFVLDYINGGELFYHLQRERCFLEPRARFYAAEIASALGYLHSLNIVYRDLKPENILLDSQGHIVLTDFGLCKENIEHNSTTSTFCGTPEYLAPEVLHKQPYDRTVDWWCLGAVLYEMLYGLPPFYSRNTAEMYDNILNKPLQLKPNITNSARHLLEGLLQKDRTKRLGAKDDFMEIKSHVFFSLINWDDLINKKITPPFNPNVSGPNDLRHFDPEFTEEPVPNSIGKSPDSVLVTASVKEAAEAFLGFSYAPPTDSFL
Insulin receptor (Homo sapiens), sequence (P06213 28-758 limits assumed): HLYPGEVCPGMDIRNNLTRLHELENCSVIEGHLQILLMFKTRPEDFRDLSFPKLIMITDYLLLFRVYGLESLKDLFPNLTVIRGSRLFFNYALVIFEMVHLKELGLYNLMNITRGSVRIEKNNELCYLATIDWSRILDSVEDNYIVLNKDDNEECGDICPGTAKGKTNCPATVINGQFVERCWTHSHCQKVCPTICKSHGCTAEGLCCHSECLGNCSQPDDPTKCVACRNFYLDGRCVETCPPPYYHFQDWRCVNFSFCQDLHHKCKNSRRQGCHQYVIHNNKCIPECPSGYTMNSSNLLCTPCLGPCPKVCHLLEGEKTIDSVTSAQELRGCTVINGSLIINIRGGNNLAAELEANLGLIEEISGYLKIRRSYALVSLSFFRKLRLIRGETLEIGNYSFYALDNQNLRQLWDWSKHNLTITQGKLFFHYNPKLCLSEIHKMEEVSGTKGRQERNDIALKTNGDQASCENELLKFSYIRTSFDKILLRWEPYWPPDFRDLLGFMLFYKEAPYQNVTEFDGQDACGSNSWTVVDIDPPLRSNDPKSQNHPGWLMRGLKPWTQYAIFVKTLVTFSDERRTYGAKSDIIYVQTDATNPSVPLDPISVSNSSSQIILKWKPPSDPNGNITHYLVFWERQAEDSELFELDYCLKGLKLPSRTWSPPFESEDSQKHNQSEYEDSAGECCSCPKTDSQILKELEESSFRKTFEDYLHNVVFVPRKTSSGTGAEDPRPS
Insulin receptor (Homo sapiens), sequence (P06213 763-1382 limits assumed): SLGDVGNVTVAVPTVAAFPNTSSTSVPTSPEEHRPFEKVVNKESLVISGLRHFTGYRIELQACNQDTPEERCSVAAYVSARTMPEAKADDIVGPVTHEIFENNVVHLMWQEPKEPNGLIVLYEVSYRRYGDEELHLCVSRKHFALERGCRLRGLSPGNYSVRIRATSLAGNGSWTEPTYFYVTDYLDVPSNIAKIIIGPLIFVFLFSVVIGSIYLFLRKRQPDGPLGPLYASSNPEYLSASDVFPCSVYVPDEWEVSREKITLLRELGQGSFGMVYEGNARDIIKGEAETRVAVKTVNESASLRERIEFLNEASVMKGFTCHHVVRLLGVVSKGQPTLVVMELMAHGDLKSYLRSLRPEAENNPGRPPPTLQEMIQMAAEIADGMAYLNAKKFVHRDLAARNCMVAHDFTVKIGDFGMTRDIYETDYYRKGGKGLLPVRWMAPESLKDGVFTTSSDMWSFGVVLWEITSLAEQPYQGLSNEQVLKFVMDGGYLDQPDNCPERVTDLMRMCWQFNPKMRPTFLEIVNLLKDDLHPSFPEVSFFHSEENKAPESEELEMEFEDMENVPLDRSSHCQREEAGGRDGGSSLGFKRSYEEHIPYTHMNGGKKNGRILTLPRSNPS

inhibition [1]: 79%
inhibition [2]: 7%
inhibition [3]: 5%
inhibition [4]: 5%
inhibition [5]: 25%
inhibition [6]: -8%
inhibition [7]: 23%
inhibition [8]: 21%
pIC50 (Aurora kinase B [9]): 5.43
pIC50 (HT-29): 5.21
inhibition [10]: 2%
inhibition [11]: 13%
inhibition [12]: 41%
inhibition [13]: 8%
inhibition [14]: 9%
inhibition [15]: 7%
pIC50 [16]: < 4.80
inhibition (Aurora kinase B [17]): 59%
inhibition [18]: 11%
inhibition [19]: 16%
inhibition [20]: 29%
inhibition [21]: 9%
inhibition [22]: 3%
inhibition [23]: 11%
inhibition [24]: 4%
inhibition [25]: 25%
inhibition [26]: 15%
inhibition [27]: 28%
inhibition [28]: 20%
pIC50 (Aurora kinase B [29]): 7.24
inhibition [30]: 21%
inhibition [31]: 67%
inhibition [32]: 30%
inhibition [33]: 43%
inhibition [34]: 33%
inhibition [35]: 5%
inhibition [36]: -3%
inhibition [37]: 8%
inhibition [38]: 3%
inhibition [39]: 7%
inhibition [40]: 15%
inhibition [41]: 16%
inhibition [42]: 19%
inhibition [43]: 78%
inhibition [44]: 36%
inhibition [45]: 17%
inhibition [46]: 7%
inhibition [47]: 91%
Compound: CC(=O)N1CCN(C(=O)Cc2ccc(Nc3ncc(F)c(Nc4ccc(C(=O)Nc5ccccc5Cl)cc4)n3)cc2)CC1
